For 23 compounds, IC50 results are on record in US20210317092A1 (BAYER PHARMA AKTIENGESELLSCHAFT, priority 2016, published 2021).

The target of test [1] is T1, human Bradykinin B1 receptor (Homo sapiens, UniProt P46663).
T1 construct: host or cells: CHO-K1
T1 sequence (P46663 1-353): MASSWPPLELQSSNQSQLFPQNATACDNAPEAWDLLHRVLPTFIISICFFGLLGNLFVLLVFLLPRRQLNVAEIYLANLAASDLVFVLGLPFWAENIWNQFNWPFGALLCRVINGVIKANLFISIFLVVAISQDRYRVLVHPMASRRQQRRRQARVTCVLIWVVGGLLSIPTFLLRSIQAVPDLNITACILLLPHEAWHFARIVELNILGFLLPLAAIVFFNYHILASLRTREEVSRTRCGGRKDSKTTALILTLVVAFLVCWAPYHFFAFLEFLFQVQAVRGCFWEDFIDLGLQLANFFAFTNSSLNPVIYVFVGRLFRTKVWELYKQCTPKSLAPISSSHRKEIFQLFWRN
Description: Calcium flux Assay (FLIPR) with recombinant CHO-K1 cells expressing human Bradykinin B1 receptor, in presence (hB1 IC50) or absence (hB1 free IC50) of 0.1% BSA. The test is classed as cell-based. (In general: Calcium assays in cells follow changes in intracellular calcium, usually with a dye or a luminescent sensor.)

Test [2] addresses T2, native human Bradykinin B1 receptor (Homo sapiens, UniProt P46663).
T2 construct: which express native human Bradykinin B1 receptor after induction with human IL-10; Coriell Institute; host or cells: IMR-90 human foetal lung fibroblasts, cytokine-induced
T2 sequence (P46663 1-353): T1 sequence (P46663 1-353)
Description: Calcium flux Assay (FLIPR) with human fibroblasts expressing Bradykinin B1 receptor (hB1 IMR-90). Particulars: IMR-90 human fibroblasts expressing native Bradykinin B1 receptor. In kind it is cell-based. The method, boiled down:
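IMR-90 human foetal lung fibroblasts induced with 0.35 ng/mL […] for 3 h, Fluo-4/AM-loaded, preincubated with compound (8 concentrations, triplicate) for 30 min at 28 °C, then challenged with Lys-(Des-Arg)-bradykinin at EC90. Ca2+ fluorescence was read at 538 nm; full inhibition set by 20 µM Lys-(Des-Arg-Leu)-bradykinin; IC50 derived.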

Where [3] appears, read: in absence of 0.1% BSA, read-out: hB1 free IC50.
Where [4] appears, read: in presence of 0.1% BSA, read-out: hB1 IC50.

Read-outs that look alike come from different tables or passages of the source.

In the case of `Cc1ccc(-c2ccc(NC(=O)C3(c4cccc(Cl)c4)CC3)cc2-c2nnn[nH]2)cn1` [Example 208, 1(3-chlorophenyl)-N-[4-(6-methylpyridin-3-yl)-3-(1H-tetrazol-5-yl)phenyl] cyclopropane-carboxamide], the IC50 (usually the point on the concentration scale where inhibition reaches its midpoint) came to 22.6 nM in test [1] (setting [3]), 15.8 nM in test [1] (setting [4]) and 11.2 nM in test [2].
On to `CCOc1ccc(-c2ccc(NC(=O)C3(c4ccc(OC)c(F)c4)CC3)cc2-c2nnn[nH]2)cn1` [Example 86, N-[4-(6-ethoxypyridin-3-yl)-3-(1H-tetrazol-5-yl)phenyl]-1-(3-fluoro-4-methoxyphenyl) cyclopropane-carboxamide], for which the IC50 is 40.3 nM in test [1] (setting [3]), 92.5 nM in test [1] (setting [4]) and 27.4 nM in test [2].
In the same order, the values of `CCOc1ccc(-c2ccc(NC(=O)C3(c4cccc(Cl)c4)CC3)cc2-c2nnn[nH]2)cc1OC` [Example 119, 1-(3-chlorophenyl)-N-[4′-ethoxy-3′-methoxy-2-(1H-tetrazol-5-yl)biphenyl-4-yl]cyclopropane carboxamide] are 2.88 nM, 22.7 nM and 13.1 nM.
Take `O=C(Nc1ccc(-c2ccc(C(F)(F)F)nc2)c(-c2nnn[nH]2)c1)C1(c2ccc(C(F)(F)F)cc2)CC1` [Example 140, N-{3-(1H-tetrazol-5-yl)-4-[6-(trifluoromethyl)pyridin-3-yl]phenyl}-1-[4-(trifluoromethyl)phenyl] cyclopropane-carboxamide]: the IC50 was determined as 42.1 nM in test [1] (setting [3]) and 85.1 nM in test [2].
With `COCc1ccc(-c2ccc(NC(=O)C3(c4ccc(F)cc4F)CC3)cc2-c2nnn[nH]2)cn1` [Example 127, 1-(2,4-difluorophenyl)-N-{4-[6-(methoxymethyl)pyridin-3-yl]-3-(1H-tetrazol-5-yl)phenyl} cyclopropane-carboxamide], the IC50 in test [1] (setting [3]) was 88.6 nM; in test [1] (setting [4]) it was 90.9 nM; in test [2], 27.9 nM.
In the case of `O=C(Nc1cc(F)c(-c2ccc(C(F)(F)F)nc2)c(-c2nnn[nH]2)c1)C1(c2ccc(C(F)(F)F)cc2F)CC1` [Example 242, N-{3-fluoro-5-(1H-tetrazol-5-yl)-4-[6-(trifluoromethyl)pyridin-3-yl]phenyl}-1-[2-fluoro-4-(trifluoromethyl)phenyl] cyclopropane-carboxamide], the figures for the IC50 in test [1] (setting [3]) and in test [2] were 9.76 nM and 22.8 nM, respectively.
In the case of `CCOc1ccc(-c2ccc(NC(=O)C3(c4ccc(F)cc4F)CC3)cc2-c2nnn[nH]2)cn1` [Example 101, 1-(2,4-difluorophenyl)-N-[4-(6-ethoxypyridin-3-yl)-3-(1H-tetrazol-5-yl)phenyl] cyclopropane-carboxamide], the results for the IC50 in test [1] (setting [3]), in test [1] (setting [4]) and in test [2] were 24.5 nM, 38.7 nM and 22.1 nM, respectively.
As to `COc1ccc(-c2ccc(NC(=O)C3(c4ccc(Cl)c(F)c4)CC3)cc2-c2nnn[nH]2)cc1OC` [Example 16, 1-(4-chloro-3-fluorophenyl)-N-[3′,4′-dimethoxy-2-(1H-tetrazol-5-yl)biphenyl-4-yl]cyclopropane carboxamide], the IC50 is 31.7 nM in test [1] (setting [4]) and 528 nM in test [2].
Turning to `CCOc1ccc(-c2ccc(NC(=O)C3(c4cc(Cl)ccc4F)CC3)cc2-c2nnn[nH]2)cn1` [Example 78, 1-(5-chloro-2-fluorophenyl)-N-[4-(6-ethoxypyridin-3-yl)-3-(1H-tetrazol-5-yl)phenyl] cyclopropane-carboxamide], the IC50 was 21.2 nM in test [1] (setting [3]), 24.5 nM in test [1] (setting [4]) and 15.8 nM in test [2].
As for `COc1ccc(-c2ccc(NC(=O)C3(c4ccc(C(F)(F)F)cc4)CC3)cc2-c2nnn[nH]2)cc1OC` [Example 44, N-[3′,4′-dimethoxy-2-(1H-tetrazol-5-yl)biphenyl-4-yl]-1-[4-(trifluoromethyl)phenyl] cyclopropane-carboxamide], the IC50 in test [1] (setting [3]) worked out at 5.7 nM; in test [1] (setting [4]), 23 nM; in test [2], 5.47 nM.
The matching figures for `Cn1ncc2ccc(-c3ccc(NC(=O)C4(c5cccc(Cl)c5)CC4)cc3-c3nnn[nH]3)cc21` [Example 213, 1-(3-chlorophenyl)-N-[4-(1-methyl-1H-indazol-6-yl)-3-(1H-tetrazol-5-yl)phenyl] cyclopropane-carboxamide]: 18 nM, 63.2 nM and 24.7 nM.
On to `O=C(Nc1ccc(-c2ccc(C(F)(F)F)nc2)c(-c2nnn[nH]2)c1)C1(c2ccc(F)c(F)c2)CC1` [Example 193, 1-(3,4-difluorophenyl)-N-{3-(1H-tetrazol-5-yl)-4-[6-(trifluoromethyl)pyridin-3-yl]phenyl} cyclopropane-carboxamide], for which the results for the IC50 in test [1] (setting [3]) and in test [2] were 95.3 nM and 80.6 nM, respectively.
For `CCOc1ccc(-c2cc(O)c(NC(=O)C3(c4ccc(Cl)cc4)CC3)cc2-c2nnn[nH]2)cn1` [Example 227, 1-(4-chlorophenyl)-N-[4-(6-ethoxypyridin-3-yl)-2-hydroxy-5-(1H-tetrazol-5-yl)phenyl] cyclopropane-carboxamide], the IC50 in test [1] (setting [4]) came out at 83.8 nM; in test [2] it was 177 nM.
`CCOc1ccc(-c2ccc(NC(=O)C3(c4cc(F)cc(Cl)c4)CC3)cc2-c2nnn[nH]2)cn1` [Example 77, 1-(3-chloro-5-fluorophenyl)-N-[4-(6-ethoxypyridin-3 yl)-3-(1H-tetrazol-5-yl)phenyl] cyclopropane-carboxamide]: the figures for the IC50 in test [1] (setting [3]), in test [1] (setting [4]) and in test [2] were 16.1 nM, 24 nM and 21.7 nM, respectively.
With `CC(F)(F)c1ccc(-c2ccc(NC(=O)C3(c4ccc(F)c(F)c4)CC3)cc2-c2nnn[nH]2)cn1` [Example 279, N-{4-[6-(1,1-difluoroethyl)py-ridin-3-yl]-3-(1H-tetrazol-5-yl)phenyl}-1-(3,4-difluorophenyl)cy-clopropanecar-boxamide], the IC50 in test [1] (setting [3]) was determined as 23.1 nM; in test [2], 16.3 nM.
Consider `CCc1cc(-c2ccc(NC(=O)C3(c4cccc(Cl)c4)CC3)cc2-c2nnn[nH]2)ccn1` [Example 181, 1-(3-chlorophenyl)-N-[4-(2-ethylpyridin-4-yl)-3-(1H-tetrazol-5-yl)phenyl] cyclopropane-carboxamide], for which the IC50 stood at 20.8 nM in test [1] (setting [3]), 14.8 nM in test [1] (setting [4]) and 7.29 nM in test [2].
As for `O=C(Nc1ccc(-c2ccc(C(F)F)nc2)c(-c2nnn[nH]2)c1)C1(c2ccc(C(F)(F)F)cc2F)CC1` [Example 259, N-{4-[6-(difluoromethyl)pyridin-3-yl]-3-(1H-tetrazol-5-yl)phenyl}-1-[2-fluoro-4-(trifluoromethyl)phenyl]cyclopro-panecarboxamide], the IC50 in test [1] (setting [3]) is 3.52 nM; in test [2] it was 10.6 nM.
`CC(F)(F)c1ccc(-c2ccc(NC(=O)C3(c4ccc(C(F)(F)F)cc4F)CC3)cc2-c2nnn[nH]2)cn1` [Example 281, N-{4-[6-(1,1-difluoroethyl)py-ridin-3-yl]-3-(1H-tetrazol-5-yl)phenyl}-1-[2-fluoro-4-(trifluoromethyl)phenyl]cyclopro-panecarboxamide]: the values for the IC50 in test [1] (setting [3]) and in test [2] were 6 nM and 6.17 nM, respectively.
Turning to `CO[C@H]1CC[C@H](c2ccc(NC(=O)C3(c4cccc(Cl)c4)CC3)cc2-c2nnn[nH]2)CC1` [Example 190, 1-(3-chlorophenyl)-N-[4-(trans-4-methoxy-cyclohexyl)-3-(1H-tetrazol-5-yl)phenyl] cyclopropane-carboxamide], the results for the IC50 in test [1] (setting [3]), in test [1] (setting [4]) and in test [2] were 189 nM, 250 nM and 340 nM, respectively.
The matching figures for `CC(C)(O)c1ccc(-c2ccc(NC(=O)C3(c4cccc(Cl)c4)CC3)cc2-c2nnn[nH]2)cn1` [Example 340, 1-(3-chlorophenyl)-N-{4-[6-(2-hydroxypropan-2-yl)pyridin-3-yl]-3-(1H-tetrazol-5-yl)phenyl}cyclopro-panecarboxa-mide]: 265 nM, 161 nM and 108 nM.
The matching figures for `CCOc1ccc(-c2ccc(NC(=O)C3(c4ccc(F)c(F)c4)CC3)cc2-c2nnn[nH]2)cn1` [Example 82, 1-(3,4-difluorophenyl)-N-[4-(6-ethoxypyridin-3-yl)-3-(1H-tetrazol-5-yl)phenyl] cyclopropane-carboxamide]: 29.1 nM, 33.3 nM and 14.9 nM.
In the same order, the values of `CC(C)Oc1ccc(-c2ccc(NC(=O)C3(c4cccc(Cl)c4)CC3)cc2-c2nnn[nH]2)cn1` [Example 148, 1-(3-chlorophenyl)-N-[4-(6-isopropoxy-pyridin-3-yl)-3-(1H-tetrazol-5-yl)phenyl] cyclopropane-carboxamide] are 1.94 nM, 20 nM and 18.5 nM.
For the compound `Cc1ccc(C2(C(=O)Nc3ccc(-c4ccc(C(F)(F)F)nc4)c(-c4nnn[nH]4)c3)CC2)c(F)c1` [Example 291, 1-(2-fluoro-4-methylphenyl)-N-{3-(1H-tetrazol-5-yl)-4-[6-(trifluoromethyl)pyridin-3-yl]phenyl}cyclopro-panecarboxa-mide], the values for the IC50 in test [1] (setting [3]) and in test [2] were 22.5 nM and 2.36 nM, respectively.
